Read-outs that look alike come from different tables or passages of the source.
Key:
[1] = target: CRTH2 (Homo sapiens (Human), UniProt Q9Y5Y4); assay: CRTH2 receptor binding inhibitory activity ([3H]-PGD2 displacement, membranes of CRTH2-expressing K562 cell)
Protocol: Cell membrane was prepared from CRTH2-expressing K562 cell. The cell membrane (20 μg/well) was mixed with reaction buffer (50 mM Tris/HCl, pH 7.4, 10 mM MgCl2). Then, [^3H]-PGD2 was added to the mixture and incubated for 60 min at room temperature. […] Then, the mixture was filtrated with glass paper immediately. The filter paper was washed several times and radio activity on the filter was measured. Specific binding was defined as difference between total and non-specific binding (radio activity with 10 μM PGD2). Ki values for each compound were calculated from displacement curve.

[2] = target: Human DP1 receptor (Homo sapiens (Human), UniProt Q13258); assay: Human DP1 inhibitory activity in DP1-expressing cell (PGD2-induced cAMP); type: cell-based; conditions: category of cAMP IC50, human DP1 receptor expressing Jurkut cell
Protocol: Compounds were categorized as AA (cAMP is less than 100 nM) and A (cAMP is more than 100 nM and less than 5000 nM) as shown in Table 99 and 100.

[3] = CRTH2 receptor binding, [3H]-PGD2 displacement, membrane of CRTH2-expressing K562 cell, categorized AAAA/AAA, read-out: Ki
[4] = [3H]-PGD2 displacement, membrane of CRTH2-expressing K562 cell, read-out: Ki

Sequence of CRTH2 (Q9Y5Y4 whole entry): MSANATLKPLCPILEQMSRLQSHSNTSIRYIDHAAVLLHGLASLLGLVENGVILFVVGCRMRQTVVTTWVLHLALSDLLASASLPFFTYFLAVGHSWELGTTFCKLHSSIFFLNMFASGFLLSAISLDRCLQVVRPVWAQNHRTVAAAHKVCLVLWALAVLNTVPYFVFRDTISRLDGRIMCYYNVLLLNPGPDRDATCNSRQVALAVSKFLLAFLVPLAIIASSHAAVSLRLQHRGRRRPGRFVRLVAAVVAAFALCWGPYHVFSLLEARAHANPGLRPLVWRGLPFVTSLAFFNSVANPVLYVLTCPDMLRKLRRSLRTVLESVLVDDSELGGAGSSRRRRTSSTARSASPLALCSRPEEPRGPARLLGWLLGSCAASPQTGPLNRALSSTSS
Sequence of Human DP1 receptor (Q13258 whole entry): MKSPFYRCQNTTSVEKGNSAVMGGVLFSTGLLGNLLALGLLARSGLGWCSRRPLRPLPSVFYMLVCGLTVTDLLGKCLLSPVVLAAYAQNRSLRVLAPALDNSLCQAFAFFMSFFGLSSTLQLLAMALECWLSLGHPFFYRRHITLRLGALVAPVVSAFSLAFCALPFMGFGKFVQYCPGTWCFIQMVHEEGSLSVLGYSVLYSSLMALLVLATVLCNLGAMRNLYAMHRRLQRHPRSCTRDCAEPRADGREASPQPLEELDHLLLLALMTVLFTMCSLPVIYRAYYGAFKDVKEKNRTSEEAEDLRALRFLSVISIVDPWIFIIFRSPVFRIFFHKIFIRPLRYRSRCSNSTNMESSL

Ki [1, 3] | IC50 [2] | Ki [1, 4] | Structure (SMILES) | Ki [1]
< 100 nM | 100 to 5000 nM |  | C[C@]1(O)CN(S(=O)(=O)c2ccc(F)cc2)C[C@@H]1n1nc(CC(=O)O)c2ccccc21 [Compound I-158] | 
< 100 nM | < 100 nM |  | CCOc1ccc(S(=O)(=O)N2C[C@@H](C)[C@@H](n3nc(CC(=O)O)c4ccccc43)C2)c(C(C)O)c1 (stereo partly shown) [Compound I-312] | 
< 100 nM | 100 to 5000 nM | 11 nM | CCOc1ccc(S(=O)(=O)N2C[C@@H](C)[C@@H](n3nc(CC(=O)O)c4ccc(C#N)cc43)C2)cn1 [Compound I-173] | 
< 100 nM | < 100 nM |  | CCc1ccc(S(=O)(=O)N2C[C@@H](C)[C@@H](n3nc(CC(=O)O)c4ccc(C)cc43)C2)cc1 [Compound I-232] | 
< 100 nM | < 100 nM |  | CCOc1ccc(S(=O)(=O)N2C[C@@H](C)[C@@H](n3cc(CC(=O)O)c4ccc(C)cc43)C2)cc1 [Compound I-271] | 
< 100 nM | < 100 nM |  | CCc1ccc(S(=O)(=O)N2C[C@@H](C)[C@@H](n3nc(CC(=O)O)c4ccc(Cl)cc43)C2)cc1 [Compound I-141] | 
< 100 nM | 100 to 5000 nM |  | Cc1cccn(C[C@H]2C[C@@H](n3nc(CC(=O)O)c4ccc(F)cc43)CN2S(=O)(=O)c2ccc(OC(C)C)cc2)c1=O [Compound I-23] | 
100 to 5000 nM | 100 to 5000 nM | 320 nM | CNC(=O)[C@@H]1C[C@@H](n2nc(CC(=O)O)c3ccc(F)cc32)CN1S(=O)(=O)c1ccc(OC(C)C)cc1 [Compound I-4] | 
< 100 nM | < 100 nM |  | CCOc1ccc(S(=O)(=O)N2C[C@H](n3nc(CC(=O)O)c4ccc(F)cc43)C(C)(C)C2)cc1 [Compound I-331] | 
< 100 nM |  |  | CC(C)Oc1ccc(S(=O)(=O)N2C[C@H](C)[C@@H](n3nc(CC(=O)O)c4cccc(F)c43)C2)cc1 [Compound I-70] | 
< 100 nM | 100 to 5000 nM | 15 nM | CCOc1ccc(S(=O)(=O)N2C[C@@H](C)[C@@H](n3nc(CC(=O)O)c4ccccc43)C2)nc1 [Compound I-247] | 
< 100 nM | 100 to 5000 nM |  | CC(C)Oc1ccc(S(=O)(=O)N2C[C@@H](C3CC3)[C@@H](n3nc(CC(=O)O)c4ccc(F)cc43)C2)cc1 [Compound I-41] | 
100 to 5000 nM | 100 to 5000 nM |  | CC(C)Oc1ccc(S(=O)(=O)N2C[C@H](n3nc(CC(=O)O)c4ccc(F)cc43)C[C@@H]2CS(C)(=O)=O)cc1 [Compound I-355] | 
< 100 nM | 100 to 5000 nM |  | CC(C)Oc1ccc(S(=O)(=O)N2C[C@H](n3nc(CC(=O)O)c4ccc(F)cc43)CC2(C)C)cc1 [Compound I-24] | 
100 to 5000 nM | < 100 nM |  | CC(C)Oc1ccc(S(=O)(=O)N2C[C@@H](C)[C@@H](n3nc(CC(=O)O)c4cc(C#N)c(F)cc43)C2)cc1 [Compound I-167] | 
< 100 nM | 100 to 5000 nM | 2.5 nM | C[C@@H]1CN(S(=O)(=O)c2cccc(Cl)c2)C[C@@H]1n1nc(CC(=O)O)c2ccc(F)cc21 [Compound I-122] | 
100 to 5000 nM | < 100 nM |  | CC(C)Oc1ccc(S(=O)(=O)N2C[C@H](n3nc(CC(=O)O)c4ccc(F)cc43)C[C@@H]2COc2ccc(F)cc2)cc1 [Compound I-366] | 
100 to 5000 nM | 100 to 5000 nM |  | C[C@@H]1CN(S(=O)(=O)c2ccc(Oc3ccccc3)nc2)C[C@@H]1n1nc(CC(=O)O)c2ccccc21 [Compound I-213] | 
 | 100 to 5000 nM |  | CCOc1ccc(S(=O)(=O)N2C[C@@H](C)[C@@H](n3nc(CC(=O)OC(C)C)c4ccccc43)C2)cc1 [Compound I-257] | 
100 to 5000 nM |  | 100 nM | CCOc1ccc(S(=O)(=O)N2C[C@@H](n3nc(CC(=O)O)c4ccccc43)[C@@H]3COC[C@@H]32)cc1 [Compound I-367] | 
 |  | 2.1 nM | CC(C)Oc1ccc(S(=O)(=O)N2C[C@@H](C)[C@@H](n3nc(CC(=O)O)c4ccc(Cl)cc43)C2)cc1 [Compound I-33] | 
 | 100 to 5000 nM |  | CC(C)Oc1ccc(S(=O)(=O)N2C[C@H](n3nc(CC(=O)O)c4ccc(F)cc43)C[C@@H]2COc2ccccn2)cc1 [Compound I-339] | 
 | < 100 nM |  | Cc1ccc2c(CC(=O)O)nn([C@H]3CN(S(=O)(=O)c4ccc(OC(C)C)cc4)C[C@@]3(C)F)c2c1 [Compound I-89] | 
 | < 100 nM |  | CCOc1ccc(S(=O)(=O)N2C[C@@H](C)[C@@H](n3nc(C(C)(OC)C(=O)O)c4ccccc43)C2)cc1 (stereo partly shown) [Compound I-286] | 
 | 100 to 5000 nM |  | CCOc1ccc(S(=O)(=O)N2C[C@@H](C)[C@@H](n3nc(C(F)C(=O)O)c4ccccc43)C2)cc1 (stereo partly shown) [Compound I-337] | 
 | 100 to 5000 nM |  | CCOc1ccc(S(=O)(=O)N2C[C@H](n3nc(CC(=O)O)c4ccccc43)C[C@H]2C(N)=O)cc1 [Compound I-321] | 

More lines, now with the values behind:

Structure (SMILES) | Ki [1, 3] | IC50 [2] | Ki [1, 4] | Ki [1]
CC(C)Oc1ccc(S(=O)(=O)N2C[C@H](n3nc(CC(=O)O)c4ccc(F)cc43)C[C@@H]2c2ccccc2F)cc1 [Compound I-302] | 100 to 5000 nM | 100 to 5000 nM |  | 
CCSCCOc1ccc(S(=O)(=O)N2C[C@@H](C)[C@@H](n3nc(CC(=O)O)c4ccccc43)C2)cc1 [Compound I-308] | < 100 nM | < 100 nM |  | 
COc1ccc(S(=O)(=O)N2C[C@@H](C)[C@@H](n3nc(CC(=O)O)c4ccc(F)cc43)C2)s1 [Compound I-179] | < 100 nM | < 100 nM |  | 
CCOc1ccc(S(=O)(=O)N2C[C@@H](C)[C@@H](n3nc(CC(=O)O)c4cc(C#N)ccc43)C2)cc1 [Compound I-160] | 100 to 5000 nM | < 100 nM |  | 
CC(C)Oc1ccc(S(=O)(=O)N2[C@@H]3CC[C@H]2C[C@H](n2nc(CC(=O)O)c4ccc(F)cc42)C3)cc1 [Compound I-81] |  | 100 to 5000 nM |  | 100 to 5000 nM
C[C@]1(F)CN(S(=O)(=O)c2ccc(F)cc2)C[C@@H]1n1nc(CC(=O)O)c2ccccc21 (racemic) [Compound I-227] | < 100 nM | 100 to 5000 nM |  | 
CCOc1ccc(S(=O)(=O)N2C[C@H](n3nc(CC(=O)O)c4ccccc43)[C@@H](C)[C@@H]2C#N)cc1 [Compound I-304] | < 100 nM | < 100 nM |  | 
CCOc1ccc(S(=O)(=O)N2C[C@@H](C)[C@@H](n3nc(CC(=O)O)c4ccccc43)C2)c(OC)c1 [Compound I-261] | 100 to 5000 nM | 100 to 5000 nM |  | 
CCOc1ccc(S(=O)(=O)N2C[C@@H](C)[C@@H](n3nc(CC(=O)O)c4ccc(C)cc43)C2)cn1 [Compound I-111] | < 100 nM | < 100 nM |  | 
COc1ccc(S(=O)(=O)N2C[C@@H](C)[C@@H](n3nc(CC(=O)O)c4ccc(F)cc43)C2)c(F)c1 [Compound I-233] | < 100 nM | < 100 nM |  | 
CCOc1ccc(S(=O)(=O)N2C[C@H](n3nc(CC(=O)O)c4ccccc43)[C@H](C)[C@@H]2C#N)cc1 [Compound I-333] | < 100 nM | < 100 nM |  | 
CCOc1ccc(S(=O)(=O)N2C[C@@H](C)[C@@H](n3nc(CC(=O)O)c4ccc(F)cc43)C2)nc1 [Compound I-235] | < 100 nM | 100 to 5000 nM |  | 
CC(C)Oc1ccc(S(=O)(=O)N2C[C@H](n3nc(CC(=O)O)c4ccc(F)cc43)C[C@@H]2Cn2ncnn2)cc1 [Compound I-299] | 100 to 5000 nM | 100 to 5000 nM |  | 
C=C[C@@H]1CN(S(=O)(=O)c2ccc(OC(C)C)cc2)C[C@@H]1n1nc(CC(=O)O)c2ccc(F)cc21 [Compound I-38] | < 100 nM | < 100 nM |  | 
CC(C)Oc1ccc(S(=O)(=O)N2CC=C(n3nc(CC(=O)O)c4ccc(F)cc43)C2)cc1 [Compound I-28] | 100 to 5000 nM | < 100 nM |  | 
Cc1ccc2c(CC(=O)O)nn([C@H]3CN(S(=O)(=O)c4ccc(OC(C)C)cc4)C[C@]3(C)O)c2c1 [Compound I-87] | < 100 nM | 100 to 5000 nM |  | 
COc1ccc(S(=O)(=O)N2C[C@@H](C)[C@@H](n3nc(CC(=O)O)c4ccc(F)cc43)C2)nc1 [Compound I-234] | < 100 nM | 100 to 5000 nM |  | 
CCOc1ccc(S(=O)(=O)N2C[C@@H](n3nc(CC(=O)O)c4ccc(F)cc43)[C@@H](C)[C@@H]2C(N)=O)cc1 [Compound I-154] |  | 100 to 5000 nM |  | 
CCOc1ccc(S(=O)(=O)N2C[C@@H](C)[C@@H](n3c(C)c(CC(=O)O)c4ccccc43)C2)cn1 [Compound I-330] | < 100 nM | < 100 nM |  | 
CC(C)Oc1ccc(S(=O)(=O)N2C[C@@H](n3nc(CC(=O)O)c4ccc(F)cc43)[C@@H](C)C2)cc1 [Compound I-36] | < 100 nM | 100 to 5000 nM |  | 
Cc1ccc2c(CC(=O)O)nn([C@H]3CN(S(=O)(=O)c4ccc(OC(C)C)cc4)C[C@H]3C)c2c1 [Compound I-62] | < 100 nM | < 100 nM |  | 
CC(C)C1CC1S(=O)(=O)N1C[C@@H](C)[C@@H](n2nc(CC(=O)O)c3ccccc32)C1 (stereo partly shown) [Compound I-238] | < 100 nM | 100 to 5000 nM |  | 
C=CCOC[C@H]1C[C@@H](n2nc(CC(=O)O)c3ccc(F)cc32)CN1S(=O)(=O)c1ccc(OC(C)C)cc1 [Compound I-323] | 100 to 5000 nM | 100 to 5000 nM |  | 
CCOc1ccc(S(=O)(=O)N2C[C@H](n3nc(CC(=O)O)c4ccccc43)[C@@](C)(F)C2)cc1 [Compound I-309] |  | < 100 nM |  | 
CCOc1ccc(S(=O)(=O)N2C[C@@H](C)[C@@H](n3nc(C(C)(C)C(=O)O)c4ccccc43)C2)cc1 [Compound I-335] |  | < 100 nM |  | 
CC(C)Oc1ccc(S(=O)(=O)N2C[C@H](n3nc(CC(=O)O)c4ccc(F)cc43)C[C@@H]2COCC(O)CO)cc1 (stereo partly shown) [Compound I-281] |  | 100 to 5000 nM |  | 
CC(C)Oc1ccc(S(=O)(=O)N2C[C@H](n3nc(CC(=O)O)c4ccc(F)cc43)C[C@@H]2COc2ccccc2F)cc1 [Compound I-340] |  | 100 to 5000 nM |  | 
